Data as given in a melting point compilation (Tetko et al.).

| melting point | Compound |
| --- | --- |
| 31 °C | CN1CCC(N2CCNCC2)CC1 |
| 142 to 145 °C | CC(=CNNc1nc(C)cc(C)n1)c1ccccn1 |
| 161 °C | Nc1c(Cl)cncc1Cl |
| 210 to 214 °C | COc1ccc2c(-c3ccccc3)c(-c3ccccc3)[nH]c2c1 |
| 150 to 155 °C | NS(=O)(=O)c1cnccc1Cl |
| -37 °C | C=C(C)C(=O)NCO |
| 100 °C | N#Cc1ccc(-c2cccs2)s1 |
| 127 °C | O=[N+]([O-])c1ccccc1-c1onc(-c2ccccc2)c1-c1ccccc1 |
| 8 °C | COCC(=O)c1ccccc1 |
| 87 °C | O=C(O)CCc1ccccc1O |
| 116 °C | O=Cc1cc2c(cc1Cl)OCO2 |
| -80 °C | CCCOCC(C)O (stereo not given) |
| 127 to 129 °C | NC(=S)N1CCCCC1 |
| 245 °C | O=C(O)c1cnc2ccc(OC(F)(F)F)cc2c1O |
| 239 to 240 °C | COc1ccccc1-c1nnc2n1CN(c1ccccc1C)CS2 |
| 32 °C | CCCCCCCCCCCCCCCCCc1ccccc1 |
| 126 to 127 °C | Cc1cc(C)c(CC(=NOCc2ccccc2)c2cc3cc(Br)ccc3o2)c(C)c1 |
| 177 °C | Cc1c(C(N)=O)cc([N+](=O)[O-])cc1[N+](=O)[O-] |
| 216 °C | O=C(O)c1c(-c2ccccc2)nnc2ccccc12 |
| 52.5 to 53 °C | COc1ccc(/C(C)=C/C(C)=O)cc1 |
| 43 °C | S=C=Nc1c(Cl)cccc1Cl |
| 65 °C | COc1cc(N=C=S)cc(OC)c1OC |
| -30 °C | CN(C)C(=N)N(C)C |

| melting point | Compound |
| --- | --- |
| 156 °C | NC1CONC1=O (stereo not given) |
| 45.5 °C | N#CCCCOc1ccccc1 |
| 64 °C | CCCCCCCCCCCCCCCC(=O)OC(=O)CCCCCCCCCCCCCCC |
| 249 to 250 °C | CC(=O)Nc1ccc(C=Cc2nc3cc([N+](=O)[O-])ccc3n2-c2ccc(C)cc2)cc1 |
| 205 °C | CCN1CCN(C(=O)N[C@@H](C(=O)O)c2ccc(O)cc2)C(=O)C1=O |
| 201 to 205 °C | Nc1nccnc1C(=O)O |
| 70 °C | COc1ccc(C(O)c2ccc(OC)cc2)cc1 |
| 99 to 103 °C | OCC1OC=CC(O)C1O (stereo not given) |
| 146 °C | C=C1C(=O)OC2C1CCC(C)C1C=CC(=O)C12C (stereo not given) |
| 49 °C | COC(=O)c1cc2ccccc2cc1C(=O)OC |
| 69 to 74 °C | COc1cc([N+](=O)[O-])ccc1C |
| 206 to 210 °C | COc1cc(N)c(Cl)cc1C(=O)O |
| 199 to 201 °C | COC1(OC)C2C=C3OC(=O)C1C3(C)O2 (stereo not given) |
| -70 °C | C1=COCCC1 |
| 73 to 76 °C | Cn1nccc1N |
| 187 °C | O=C(/C=C/c1ccccc1)NNc1ccccc1 |
| 126 °C | CC(C)(C)c1cc(C(=O)O)n(Cc2ccccc2)n1 |
| 189 °C | NC(=O)c1cnccn1 |
| 245 °C | O=C1c2cccc3cccc(c23)C(=O)N1O |
| 250 °C | CC(=O)OC(OC(C)=O)c1ccc2c(c1[N+](=O)[O-])C(=O)c1c(Cl)c(Cl)c(Cl)c(Cl)c1C2=O |
| 124 °C | NC(=O)c1cccc(C(F)(F)F)c1 |
| 64 °C | CC(=O)c1csc2ccccc12 |
| 144 to 145 °C | O=C1OC(c2ccccc2)=NC1=Cc1ccc(-c2cccc([N+](=O)[O-])c2)o1 |

| melting point | Compound |
| --- | --- |
| -74.4 °C | CC(C)=CCCC=C(C)C |
| 152 °C | COc1cc(OC)c([N+](=O)[O-])c(OC)c1 |
| 68.5 °C | CCCC(C)(O)C#CC(C)(O)CCC (stereo not given) |
| 288 °C | CCCCc1cc2c(O)c(C(=O)OC)cnc2cc1OCc1ccccc1 |
| 148 °C | CCOc1cc(NC(C)=O)ccc1C(=O)OC |
| 55.5 °C | CC(=O)N(C)c1ccccc1C |
| 146 to 148 °C | COc1ccc(Br)c(OC)c1C(=O)O |
| 42 °C | C#CCCCCCCCCC(=O)O |
| 205 °C | N[C@H](CCO)C(=O)O |
| 137 °C | COc1cccc(C(CCC(=O)O)C(C)(C)C(=O)O)c1 (stereo not given) |
| 70 °C | CC(CC(=O)c1ccccc1)c1ccccc1 (stereo not given) |
| 168 to 169 °C | Nc1ccc(C(=O)O)cc1OC(F)(F)F |
| -30 °C | C=C[Si](OCCOC)(OCCOC)OCCOC |
| 52 to 54 °C | CC(=O)CS(=O)(=O)c1ccc(C)cc1 |
| 160 to 163 °C | CC1(C)C=[N+]([O-])C(C)(C)N1O |
| 51 to 53 °C | N#Cc1ccc(N2CCCCC2)cc1 |
| 268 to 270 °C | O=C(Nc1ccc(F)cc1)Nc1nnc(-c2ccc(Cl)cc2)o1 |
| 278 °C | Cc1cnc2c(ccc3c(C)c(C)cnc32)c1C |
| 182 to 186 °C | CCNCC(=O)O |
| 164 °C | CC1(C)C(=O)N(Br)C(=O)N1Cl |
| 335 to 340 °C | O=C1C=CC(=O)[C@@H]2CC3=C(CC4=C(C3)C[C@H]3C(=O)C=CC(=O)[C@H]3C4)C[C@H]12 |
| 70 °C | N#Cc1ccc(Br)cc1Cl |
| 169 to 170 °C | COc1cc2c(cc1OC)C(c1cc(Cl)ccc1[N+](=O)[O-])=NCC2 |

| melting point | Compound |
| --- | --- |
| 120 °C | CN(C)CCC(O)(c1ccccc1)c1ccccc1Cl (stereo not given) |
| 164 °C | O=[N+]([O-])c1ccccc1/C(O)=C(/C(=N\O)c1ccccc1)c1ccccc1 |
| 151 °C | COc1ccc(N)c(C(=O)O)c1 |
| 26 to 32 °C | BrCC=Cc1ccccc1 |
| 205 °C | NC(Cc1ccc(O)c(I)c1)C(=O)O (stereo not given) |
| 145 °C | Cc1ccc(S(=O)(=O)N2C/C(=C\c3cccc(Cl)c3)N(S(=O)(=O)c3ccc(C)cc3)c3ccccc32)cc1 |
| 152 to 154 °C | COc1ccc(Cc2c(N)n[nH]c2N)cc1 |
| 73 °C | COc1cccc(Nc2ccccc2)c1 |
| 37 to 38 °C | O=[N+]([O-])c1ccccc1OCCCBr |
| 135 °C | Nc1n[nH]c2ccc(C(F)(F)F)cc12 |
| 86 to 90 °C | CC(C)(C)C(=O)Nc1ccccc1Cc1ccccc1 |
| 182 to 184 °C | CC(/C=C(\C)c1ccc(C)cc1)=NNc1ccc([N+](=O)[O-])cc1[N+](=O)[O-] |
| 133 °C | CC(=Cc1ccccc1)CC(N)=O |
| 150 °C | COc1cc(Br)c(C=O)cc1OC |
| 199 °C | COc1nccnc1N(C(C)=O)S(=O)(=O)c1ccc(N)cc1 |
| 177 °C | C/C(=N\c1ccc(C(=O)O)c(O)c1)c1c(O)c2ccccc2n(-c2ccccc2)c1=O |
| 144 °C | CC(=O)C1(C)CCC2C3C=C(C)C4=CC(=O)CCC4(C)C3CCC21C (stereo not given) |
| 122 °C | COc1ccc2[nH]cnc2c1 |
| 123 to 124 °C | CCOC(=O)C(C#N)=Cc1ccc(-c2ccc(C)cc2)o1 |
| 94 °C | OCCN1CCN(CCCN2c3ccccc3Sc3ccc(Cl)cc32)CC1 |
| 136 °C | C=C1C(=CC=C2CCCC3(C)C2CCC3C(C)CCCC(C)C)CC(O)CC1O (stereo not given) |
| 209 °C | Cc1cc(N=Nc2ccc(N=Nc3ccccc3)cc2)ccc1N=Nc1ccc(N=Nc2ccccc2)cc1 |
| 84 to 86 °C | O=C(Cl)c1cccc2ccsc12 |

| melting point | Compound |
| --- | --- |
| 207 °C | CNC(C)C1C(O)CC2(C)C3CCC4C(C)(C)C(NC)CCC45CC35CCC12C (stereo not given) |
| 144 °C | NS(=O)(=O)c1cccc(C(=O)c2ccccc2)c1 |
| -60 °C | CCCCOCCOCCOCCCC |
| 56 °C | COC(=O)C(C)Oc1ccc(Oc2ncc(C(F)(F)F)cc2Cl)cc1 (stereo not given) |
| 71 °C | Cc1ccc(C(O)c2ccc(C)cc2)cc1 |
| 108 to 109 °C | COC(=O)c1ccc(N)c(N)c1 |
| 17.6 °C | CC(=O)c1ccc(C)nc1 |
| 163 to 168 °C | O=c1ccnc[nH]1 |
| -4 °C | Cc1ccnc(C)n1 |
| 184 to 186 °C | CC(C)(C)S(=O)(=O)CC(N)=S |
| 134 °C | COC(=O)C1(C(=O)OC)Cc2cc(OC)ccc2C(=O)O1 |
| 128 to 129 °C | O=C1C=C(NCCc2ccccn2)C(=O)c2ccccc21 |
| 156 °C | Cc1ccc2c(ccc3cc4ccccc4cc32)c1 |
| 129 °C | CC(=O)Nc1ccc(C)cc1C |
| 211 to 212 °C | O=C(O)c1ccnc(N2CCCC2)c1 |
| 184 °C | O=C1CC=CCC(=O)CC=CC1 |
| 300 °C | Oc1nccnc1O |
| 270 °C | O=C(Nc1ccc(Cl)cc1)Nc1ccc(Cl)cc1 |
| 262 to 263 °C | NC(Cc1ccc(Br)cc1)C(=O)O (racemic) |
| 37 °C | ON=C1CCCCCCC1 |
| 327 °C | CN(C)c1ccc(C2C3=C(CC(C)(C)CC3=O)Nc3ccc4ccccc4c32)cc1 (stereo not given) |

| Compound | melting point |
| --- | --- |
| COc1ccc(C=C2C(=O)NC(=O)NC2=O)cc1OC | 265 °C |
| O=C(Cl)c1cccnc1Cl | 40 °C |
| Clc1cccc(Cl)c1CBr | 56 °C |
| Nc1ncncn1 | 219 to 224 °C |
| CCC1(O)CCC2(C)C(CCC3C4CCC(=O)C4(C)CCC32)C1 (stereo not given) | 113 to 116 °C |
| CC(C)(C)NCC(O)c1ccccc1Cl (stereo not given) | 89 °C |
| N#Cc1cc([N+](=O)[O-])cc([N+](=O)[O-])c1 | 129 °C |
| Nc1ccccc1C(=O)c1ccccc1 | 107 °C |
| O=C(O)CCCCCCCCCCO | 65.5 °C |
| O=C(CCl)Nc1ccc(Br)cc1 | 136 to 137 °C |
| O=C(Cl)c1ccc(CCl)cc1 | 29 to 33 °C |
| O=C(O)c1cc([N+](=O)[O-])cc([N+](=O)[O-])c1Cl | 199 °C |
| Clc1c(Cl)c(Cl)c2c(oc3c(Cl)c(Cl)c(Cl)c(Cl)c32)c1Cl | 258 °C |
| COc1ccc(C(C#N)C(C)=O)c(Cl)c1 (stereo not given) | 79 °C |
| CC(Cc1ccccc1)NC(C#N)c1ccccc1 (stereo not given) | 85 °C |
| COc1cc2c(c(OC)c1OC)-c1ccc(O)c(=O)cc1C(NC(C)=O)CC2 (stereo not given) | 178 °C |
| Clc1cc2oc3c(Cl)c(Cl)c(Cl)cc3c2cc1Cl | 196 °C |
